Measurements: ChEMBL document CHEMBL5360583, “Benzo[j]fluoranthene-Derived Natural Products” (J Nat Prod, 2023)
Values after ≈ are worked out from the molar mass of the structure shown.

Assays:
RAW264.7 = assay: Anti-inflammatory activity in mouse RAW264.7 cells assessed as inhibition of NO production; assay type: functional, cell-based
Micrococcus luteus [1] = assay: Antibacterial activity against Micrococcus luteus assessed as reduction in bacterial growth; assay type: functional
Caenorhabditis elegans = assay: Nematicidal activity against Caenorhabditis elegans; assay type: functional; conditions: read-out: LD50 (the source's name)
L929 [2] = assay: Cytotoxicity against mouse L929 cells assessed as reduction in cell viability by MTT assay; assay type: functional, cell-based
Bacillus subtilis = assay: Antibacterial activity against Bacillus subtilis assessed as zone of inhibition by disc diffusion method; assay type: functional
Yarrowia lipolytica = assay: Antifungal activity against Yarrowia lipolytica assessed as zone of inhibition; assay type: functional
Enterococcus faecalis = assay: Antibacterial activity against Enterococcus faecalis assessed as zone of inhibition; assay type: functional
SW480 = assay: Cytotoxicity against human SW480 cells assessed as reduction in cell growth by MTT assay; assay type: functional, cell-based
Staphylococcus aureus = assay: Antibacterial activity against Staphylococcus aureus assessed as zone of inhibition; assay type: functional
[3] = Antioxidant activity assessed as DPPH radical scavenging activity at 50 uM; assay type: functional
[4] = molecular target: Hyaluronan-binding protein 2 (Homo sapiens, UniProt Q14520); assay: Inhibition of spermidine-induced human pro-PHBP autoactivation
Micrococcus luteus [5] = assay: Antibacterial activity against Micrococcus luteus assessed as bacterial growth inhibition; assay type: functional
Jurkat = assay: Antiproliferative activity against human Jurkat cells assessed as reduction in cell viability measured after 24 hrs by MTT assay; assay type: functional, cell-based
Ramos = assay: Antiproliferative activity against human Ramos cells assessed as reduction in cell viability measured after 24 hrs by MTT assay; assay type: functional, cell-based
[6] = Inhibition of IL-2 production in CD28-stimulated human Jurkat E6.1 cells; assay type: functional, cell-based
[7] = Inhibition of tyrosine kinase (unknown origin); design: species or system Homo sapiens
Splenocyte = assay: Immunosuppressive activity in BALB/c mouse splenocyte assessed as reduction in ConA-induced mouse T-lymphocytes proliferation incubated for 48 hrs by MTT assay; assay type: functional, cell-based
[8] = Cytotoxicity against BALB/c mouse Splenocyte assessed as reduction in cell viability incubated for 48 hrs by MTT assay; assay type: toxicity, cell-based; conditions: splenocytes
L929 [9] = assay: Cytotoxicity against mouse L929 cells assessed as reduction in cell viability; assay type: functional, cell-based
Mucor hiemalis = assay: Antifungal activity against Mucor hiemalis assessed as inhibition of fungal growth measured after 18 to 48 hrs by microbroth dilution assay; assay type: functional; conditions: time 18-48 hrs

Sequence of Hyaluronan-binding protein 2 (Q14520 24-313 limits assumed): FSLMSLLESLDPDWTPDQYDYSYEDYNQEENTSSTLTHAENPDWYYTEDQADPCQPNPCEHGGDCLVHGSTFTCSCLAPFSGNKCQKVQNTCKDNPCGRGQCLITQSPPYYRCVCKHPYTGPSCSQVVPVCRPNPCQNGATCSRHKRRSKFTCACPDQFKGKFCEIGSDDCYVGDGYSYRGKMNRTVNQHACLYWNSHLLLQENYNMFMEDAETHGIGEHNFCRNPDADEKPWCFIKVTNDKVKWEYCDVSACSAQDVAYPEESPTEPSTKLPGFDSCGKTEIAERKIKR
Sequence of Hyaluronan-binding protein 2 (Q14520 314-560 limits assumed): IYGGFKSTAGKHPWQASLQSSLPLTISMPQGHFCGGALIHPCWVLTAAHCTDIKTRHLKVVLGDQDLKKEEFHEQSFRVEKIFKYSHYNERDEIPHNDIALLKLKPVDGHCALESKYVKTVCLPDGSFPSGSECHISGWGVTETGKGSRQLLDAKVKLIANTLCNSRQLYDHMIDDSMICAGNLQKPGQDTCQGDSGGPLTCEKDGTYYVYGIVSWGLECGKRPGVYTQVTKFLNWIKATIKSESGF

CO[C@H]1C[C@H](O)C2=C3c4cccc(O)c4C(=O)C[C@@H]3c3ccc(O)c1c32 [HYPOXYLONOL B]
IC50 (RAW264.7): 21.1 µM

O=C1C[C@H]2C(=C3CCC(=O)c4c(O)ccc2c43)c2cccc(O)c21
MIC (Micrococcus luteus [1]): 16.7 µg/mL (≈ 52.5 µM)
LC50 (Caenorhabditis elegans): 100 µg/mL (≈ 314 µM)
IC50 (L929 [2]): 10.4 µM
inhibition zone (IZ) (Bacillus subtilis): 11 mm
inhibition zone (IZ) (Yarrowia lipolytica): 9 mm

O=C1C[C@@H]2[C@H]3CC[C@@H](O)c4c(O)ccc(c43)[C@]2(O)c2cccc(O)c21
inhibition zone (IZ) (Bacillus subtilis): 10 mm
inhibition zone (IZ) (Enterococcus faecalis): 10 mm

CO[C@H]1C[C@H](O)C2=C3c4cccc(O)c4C(=O)[C@@H](O)[C@@H]3C3=CC=C(O)C1C32 (some centres undefined)
IC50 (RAW264.7): 14.4 µM

O=C1C[C@@H]2[C@H]3CC[C@H](O)c4c(O)ccc(c43)[C@]2(O)c2cccc(O)c21
IC50 (SW480): 9.59 µM
inhibition zone (IZ) (Staphylococcus aureus): 10 mm
inhibition zone (IZ) (Enterococcus faecalis): 10 mm

O=C1C[C@H]2C(=C3c4c2ccc(O)c4[C@@H](O)C[C@H]3O)c2cccc(O)c21
Activity [3]: 1.74%

O=C1c2c3c(cc(O)c2[C@H](O)[C@@H]2O[C@H]12)C1C=CC(O)=C2C(O)=CC=C3C21 (some centres undefined)
LC50 (Caenorhabditis elegans): 50 µg/mL (≈ 143 µM)
inhibition zone (IZ) (Bacillus subtilis): 11 mm
inhibition zone (IZ) (Yarrowia lipolytica): 8 mm

O=C1C(O)=c2c(c3ccc(=O)c4c(O)ccc2c4-3)-c2cccc(O)c21
IC50 [4]: 14 µM

COc1cccc2c3c(ccc12)-c1ccc(O)c2c(O)ccc-3c12
MIC (Micrococcus luteus [5]): 8.3 µg/mL (≈ 26.4 µM)

O=C1C[C@]2(O)C(=C3C=CC(=O)c4c(O)ccc2c43)c2cccc(O)c21
IC50 (Jurkat): 14.1 µM
IC50 (Ramos): 6.6 µM

Oc1cccc2c3c(ccc12)-c1ccc(O)c2c(O)ccc-3c12
MIC (Micrococcus luteus [5]): 16.7 µg/mL (≈ 55.6 µM)

CO[C@@H]1[C@H](O)c2c(O)cccc2C2=C3CCC(=O)c4c(O)ccc(c43)[C@H]21
IC50 [6]: 0.4 µM
IC50 [7]: 0.06 µM

Oc1cccc2c3c(ccc12)-c1ccc(O)c2cccc-3c12
IC50 (Splenocyte): 0.025 µg/mL (≈ 0.0879 µM)
IC50 at 48 h [8]: 0.22 µg/mL (≈ 0.774 µM)

COC1C(=O)c2c(O)cccc2C2=C3CCC(=O)c4c(O)ccc(c43)C21 (centres undefined)
IC50 [6]: 2.4 µM
IC50 [7]: 0.045 µM

O=C1C[C@@H]2[C@@H]3CCC(=O)c4c(O)ccc(c43)[C@]2(O)c2cccc(O)c21
LC50 (Caenorhabditis elegans): 25 µg/mL (≈ 74.3 µM)
inhibition zone (IZ) (Bacillus subtilis): 10 mm
inhibition zone (IZ) (Yarrowia lipolytica): 7 mm

COC1C(O)c2c(O)cccc2C2=C3CCC(=O)c4c(O)ccc(c43)C21 (centres undefined)
IC50 [6]: > 5 µM
IC50 [7]: > 5 µM

O=C1C[C@@H]2[C@H]3CCC(=O)c4c(O)ccc(c43)[C@]2(O)c2cccc(O)c21
inhibition zone (IZ) (Bacillus subtilis): 11 mm
inhibition zone (IZ) (Staphylococcus aureus): 12 mm

O=C1C(O)=c2c(c3cc(O)c(=O)c4c(O)ccc2c4-3)-c2cccc(O)c21
IC50 (L929 [9]): 7 µM

CO[C@@H]1[C@H](OC)c2c(O)cccc2C2=C3CCC(=O)c4c(O)ccc(c43)[C@H]21
IC50 [6]: 2.5 µM
IC50 [7]: 0.76 µM

O=C1C[C@H](O)[C@H]2c3c(ccc(O)c31)-c1cc(O)c3c(O)cccc3c12
IC50 (L929 [2]): 1.1 µM

COc1cccc2c3c(ccc12)-c1ccc(O)c2c(OC)ccc-3c12
MIC (Mucor hiemalis): 4.3 µg/mL (≈ 13.1 µM)
